Earlier results, collected in publication PMC13061384, “Rapid behavioral screening in the planarian Dugesia japonica is a biologically relevant system to study neurotoxicity of organophosphorus pesticides mixtures” (Frontiers in Toxicology, 2026).

Settings: ref PubChem

CCOP(=S)(OCC)Oc1ccc([N+](=O)[O-])cc1 [PT, Parathion]
logP: 3.8
